Source: US20220175768A1, “FGFR TYROSINE KINASE INHIBITORS FOR THE TREATMENT OF UROTHELIAL CARCINOMA” (Janssen Pharmaceutica NV, priority 2019, published 2022)

Details: 6 mg continuous, regimen 2 (n = 78)
Description: Study treatment was administered on 28-day cycles. Prior to interim analysis 1, there were 2 treatment regimens. Patients were randomized 1:1 to 28-day cycles to the following 2 regimens until a regimen was selected for further study: Regimen 1 (10 mg once daily intermittent (7 days on/7 days); Regimen 2 (6 mg once daily continuous). Randomization was stratified according to performance status (0 to 1 vs. 2), hemoglobin value (<10 vs. ≥10 g per dl), FGFR alteration type (mutation vs. fusion), prior treatment status (chemotherapy-resistant vs. chemotherapy naïve), and disease distribution (presence or absence of visceral [liver, lung, bone] metastases). Starting dose selection was based on phase 1 efficacy and tolerability.
Thus, after interim analysis, this became a single-arm study. […] Treatment continued until disease progression or unacceptable adverse event(s) per investigator.
All objective responses required confirmation by an additional investigator assessment within 4 to 6 weeks of first assessment. Disease evaluations for regimen 3 were also performed by an independent radiographic review committee. […] Safety was evaluated based on clinical laboratory tests, physical exams, electrocardiograms, and ophthalmology examinations. Adverse events and abnormalities were assessed by investigator and graded per NCI CTCAE v.4.0
Prophylactic measures were taken to minimize risk of common adverse events related to FGFR inhibition. To reduce risk of hyperphosphatemia, a low-phosphate diet was recommended for all patients (600 to 800 mg of dietary phosphate intake per day). To reduce the risk of skin effects, the application of alcohol-free emollient moisturizing cream and avoidance of unnecessary exposure to sunlight, soap, perfumed products, and hot baths was recommended. Patients were asked to keep their fingers and toes clean and nails trimmed to reduce risk of nail effects.
Additional ophthalmology examinations were performed if clinically indicated.

COc1cc(OC)cc(N(CCNC(C)C)c2ccc3ncc(-c4cnn(C)c4)nc3c2)c1 [erdafitinib, N-(3,5-dimethoxy-phenyl)-N′-(1-methylethyl)-N-[3-(1-methyl-1H-pyrazol-4-yl)quinoxalin-6-yl]ethane-1,2-diamine]
Patients with Abdominal pain, Any grade: 14 (18) no. (%) | Patients with Abdominal pain, Grade 1: 7 (9) no. (%) | Patients with Abdominal pain, Grade 2: 5 (6) no. (%) | Patients with Abdominal pain, Grade ≥3: 2 (3) no. (%) | Patients with Alanine aminotransferase increased, Any grade: 9 (12) no. (%) | Patients with Alanine aminotransferase increased, Grade 1: 7 (9) no. (%) | Patients with Alanine aminotransferase increased, Grade 2: 2 (3) no. (%) | Patients with Alanine aminotransferase increased, Grade ≥3: 0 no. (%) | Patients with Alopecia, Any grade: 10 (13) no. (%) | Patients with Alopecia, Grade 1: 9 (12) no. (%) | Patients with Alopecia, Grade 2: 1 (1) no. (%) | Patients with Alopecia, Grade ≥3: 0 no. (%) | Patients with Anemia, Any grade: 13 (17) no. (%) | Patients with Anemia, Grade 1: 0 no. (%) | Patients with Anemia, Grade 2: 8 (10) no. (%) | Patients with Anemia, Grade ≥3: 5 (6) no. (%) | Patients with Arthralgia, Any grade: 8 (10) no. (%) | Patients with Arthralgia, Grade 1: 5 (6) no. (%) | Patients with Arthralgia, Grade 2: 2 (3) no. (%) | Patients with Arthralgia, Grade ≥3: 1 (1) no. (%) | Patients with Aspartate aminotransferase increased, Any grade: 9 (12) no. (%) | Patients with Aspartate aminotransferase increased, Grade 1: 7 (9) no. (%) | Patients with Aspartate aminotransferase increased, Grade 2: 2 (3) no. (%) | Patients with Aspartate aminotransferase increased, Grade ≥3: 0 no. (%) | Patients with Asthenia, Any grade: 18 (23) no. (%) | Patients with Asthenia, Grade 1: 5 (6) no. (%) | Patients with Asthenia, Grade 2: 4 (5) no. (%) | Patients with Asthenia, Grade ≥3: 9 (12) no. (%) | Patients with Back pain, Any grade: 11 (14) no. (%) | Patients with Back pain, Grade 1: 6 (8) no. (%) | Patients with Back pain, Grade 2: 3 (4) no. (%) | Patients with Back pain, Grade ≥3: 2 (3) no. (%) | Patients with Blood creatinine increased, Any grade: 6 (8) no. (%) | Patients with Blood creatinine increased, Grade 1: 3 (4) no. (%) | Patients with Blood creatinine increased, Grade 2: 3 (4) no. (%) | Patients with Blood creatinine increased, Grade ≥3: 0 no. (%) | Patients with Conjunctivitis, Any grade: 7 (9) no. (%) | Patients with Conjunctivitis, Grade 1: 4 (5) no. (%) | Patients with Conjunctivitis, Grade 2: 2 (3) no. (%) | Patients with Conjunctivitis, Grade ≥3: 1 (1) no. (%) | Patients with Constipation, Any grade: 20 (26) no. (%) | Patients with Constipation, Grade 1: 10 (13) no. (%) | Patients with Constipation, Grade 2: 10 (13) no. (%) | Patients with Constipation, Grade ≥3: 0 no. (%) | Patients with Decreased appetite, Any grade: 29 (37) no. (%) | Patients with Decreased appetite, Grade 1: 12 (15) no. (%) | Patients with Decreased appetite, Grade 2: 13 (17) no. (%) | Patients with Decreased appetite, Grade ≥3: 4 (5) no. (%) | Patients with Diarrhea, Any grade: 39 (50) no. (%) | Patients with Diarrhea, Grade 1: 24 (31) no. (%) | Patients with Diarrhea, Grade 2: 15 (19) no. (%) | Patients with Diarrhea, Grade ≥3: 0 no. (%) | Patients with Dry eye, Any grade: 6 (8) no. (%) | Patients with Dry eye, Grade 1: 3 (4) no. (%) | Patients with Dry eye, Grade 2: 2 (3) no. (%) | Patients with Dry eye, Grade ≥3: 1 (1) no. (%) | Patients with Dry mouth, Any grade: 31 (40) no. (%) | Patients with Dry mouth, Grade 1: 23 (30) no. (%) | Patients with Dry mouth, Grade 2: 6 (8) no. (%) | Patients with Dry mouth, Grade ≥3: 2 (3) no. (%) | Patients with Dry skin, Any grade: 18 (23) no. (%) | Patients with Dry skin, Grade 1: 10 (13) no. (%) | Patients with Dry skin, Grade 2: 8 (10) no. (%) | Patients with Dry skin, Grade ≥3: 0 no. (%) | Patients with Dysgeusia, Any grade: 10 (13) no. (%) | Patients with Dysgeusia, Grade 1: 6 (8) no. (%) | Patients with Dysgeusia, Grade 2: 4 (5) no. (%) | Patients with Dysgeusia, Grade ≥3: 0 no. (%) | Patients with Dyspepsia, Any grade: 9 (12) no. (%) | Patients with Dyspepsia, Grade 1: 6 (8) no. (%) | Patients with Dyspepsia, Grade 2: 3 (4) no. (%) | Patients with Dyspepsia, Grade ≥3: 0 no. (%) | Patients with Dyspnea, Any grade: 6 (7) no. (%) | Patients with Dyspnea, Grade 1: 1 (1) no. (%) | Patients with Dyspnea, Grade 2: 3 (4) no. (%) | Patients with Dyspnea, Grade ≥3: 2 (3) no. (%) | Patients with Fatigue, Any grade: 20 (26) no. (%) | Patients with Fatigue, Grade 1: 8 (10) no. (%) | Patients with Fatigue, Grade 2: 8 (10) no. (%) | Patients with Fatigue, Grade ≥3: 4 (5) no. (%) | Patients with Hand-foot syndrome, Any grade: 13 (17) no. (%) | Patients with Hand-foot syndrome, Grade 1: 4 (5) no. (%) | Patients with Hand-foot syndrome, Grade 2: 9 (12) no. (%) | Patients with Hand-foot syndrome, Grade ≥3: 0 no. (%) | Patients with Hematuria, Any grade: 6 (8) no. (%) | Patients with Hematuria, Grade 1: 5 (6) no. (%) | Patients with Hematuria, Grade 2: 0 no. (%) | Patients with Hematuria, Grade ≥3: 1 (1) no. (%) | Patients with Hyperphosphatemia, Any grade: 52 (67) no. (%) | Patients with Hyperphosphatemia, Grade 1: 44 (56) no. (%) | Patients with Hyperphosphatemia, Grade 2: 8 (10) no. (%) | Patients with Hyperphosphatemia, Grade ≥3: 0 no. (%) | Patients with Hypomagnesemia, Any grade: 6 (8) no. (%) | Patients with Hypomagnesemia, Grade 1: 6 (8) no. (%) | Patients with Hypomagnesemia, Grade 2: 0 no. (%) | Patients with Hypomagnesemia, Grade ≥3: 0 no. (%) | Patients with Hyponatremia, Any grade: 7 (9) no. (%) | Patients with Hyponatremia, Grade 1: 2 (3) no. (%) | Patients with Hyponatremia, Grade 2: 0 no. (%) | Patients with Hyponatremia, Grade ≥3: 5 (6) no. (%) | Patients with Insomnia, Any grade: 8 (10) no. (%) | Patients with Insomnia, Grade 1: 4 (5) no. (%) | Patients with Insomnia, Grade 2: 2 (3) no. (%) | Patients with Insomnia, Grade ≥3: 2 (3) no. (%) | Patients with Lacrimation increased, Any grade: 13 (17) no. (%) | Patients with Lacrimation increased, Grade 1: 10 (13) no. (%) | Patients with Lacrimation increased, Grade 2: 3 (4) no. (%) | Patients with Lacrimation increased, Grade ≥3: 0 no. (%) | Patients with Nail dystrophy, Any grade: 7 (9) no. (%) | Patients with Nail dystrophy, Grade 1: 6 (8) no. (%) | Patients with Nail dystrophy, Grade 2: 1 (1) no. (%) | Patients with Nail dystrophy, Grade ≥3: 0 no. (%) | Patients with Nausea, Any grade: 16 (21) no. (%) | Patients with Nausea, Grade 1: 11 (14) no. (%) | Patients with Nausea, Grade 2: 4 (5) no. (%) | Patients with Nausea, Grade ≥3: 1 (1) no. (%) | Patients with Onycholysis, Any grade: 13 (17) no. (%) | Patients with Onycholysis, Grade 1: 2 (3) no. (%) | Patients with Onycholysis, Grade 2: 6 (8) no. (%) | Patients with Onycholysis, Grade ≥3: 5 (6) no. (%) | Patients with Onychomadesis, Any grade: 8 (10) no. (%) | Patients with Onychomadesis, Grade 1: 2 (3) no. (%) | Patients with Onychomadesis, Grade 2: 6 (8) no. (%) | Patients with Onychomadesis, Grade ≥3: 0 no. (%) | Patients with Oropharyngeal pain, Any grade: 8 (10) no. (%) | Patients with Oropharyngeal pain, Grade 1: 5 (6) no. (%) | Patients with Oropharyngeal pain, Grade 2: 3 (4) no. (%) | Patients with Oropharyngeal pain, Grade ≥3: 0 no. (%) | Patients with Pain in extremity, Any grade: 9 (12) no. (%) | Patients with Pain in extremity, Grade 1: 2 (3) no. (%) | Patients with Pain in extremity, Grade 2: 6 (8) no. (%) | Patients with Pain in extremity, Grade ≥3: 1 (1) no. (%) | Patients with Paronychia, Any grade: 12 (15) no. (%) | Patients with Paronychia, Grade 1: 2 (3) no. (%) | Patients with Paronychia, Grade 2: 10 (13) no. (%) | Patients with Paronychia, Grade ≥3: 0 no. (%) | Patients with Peripheral edema, Any grade: 6 (8) no. (%) | Patients with Peripheral edema, Grade 1: 2 (3) no. (%) | Patients with Peripheral edema, Grade 2: 3 (4) no. (%) | Patients with Peripheral edema, Grade ≥3: 1 (1) no. (%) | Patients with Pyrexia, Any grade: 14 (18) no. (%) | Patients with Pyrexia, Grade 1: 8 (10) no. (%) | Patients with Pyrexia, Grade 2: 3 (4) no. (%) | Patients with Pyrexia, Grade ≥3: 3 (4) no. (%) | Patients with Retinal detachment, Any grade: 8 (10) no. (%) | Patients with Retinal detachment, Grade 1: 5 (6) no. (%) | Patients with Retinal detachment, Grade 2: 3 (4) no. (%) | Patients with Retinal detachment, Grade ≥3: 0 no. (%) | Patients with Stomatitis, Any grade: 33 (42) no. (%) | Patients with Stomatitis, Grade 1: 13 (17) no. (%) | Patients with Stomatitis, Grade 2: 13 (17) no. (%) | Patients with Stomatitis, Grade ≥3: 7 (9) no. (%) | Patients with Urinary tract infection, Any grade: 13 (17) no. (%) | Patients with Urinary tract infection, Grade 1: 0 no. (%) | Patients with Urinary tract infection, Grade 2: 9 (12) no. (%) | Patients with Urinary tract infection, Grade ≥3: 4 (5) no. (%) | Patients with Vision blurred, Any grade: 5 (6) no. (%) | Patients with Vision blurred, Grade 1: 3 (4) no. (%) | Patients with Vision blurred, Grade 2: 1 (1) no. (%) | Patients with Vision blurred, Grade ≥3: 1 (1) no. (%) | Patients with Vomiting, Any grade: 11 (14) no. (%) | Patients with Vomiting, Grade 1: 9 (12) no. (%) | Patients with Vomiting, Grade 2: 2 (3) no. (%) | Patients with Vomiting, Grade ≥3: 0 no. (%) | Patients with Weight decreased, Any grade: 8 (10) no. (%) | Patients with Weight decreased, Grade 1: 4 (5) no. (%) | Patients with Weight decreased, Grade 2: 2 (3) no. (%) | Patients with Weight decreased, Grade ≥3: 2 (3) no. (%) | Treatment-related adverse event: Alopecia, Any grade: 8 (10) no. (%) | Treatment-related adverse event: Alopecia, Grade 1: 8 (10) no. (%) | Treatment-related adverse event: Alopecia, Grade 2: 0 no. (%) | Treatment-related adverse event: Alopecia, Grade ≥3: 0 no. (%)
